Laboratory results from ChEMBL document CHEMBL1201862, “PubChem BioAssay data set” (2004).
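Briefly, cells in 96-well plates were exposed to five compound concentrations for 48 h, and endpoints were estimated by linear interpolation. GI50: concentration for 50% inhibition of growth.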 The source made the active and inactive calls. Rule as the data show it: active = GI50 up to about 1.1 µM and inactive = higher.

Key:
Test in all cases: growth of human tumour cells (NCI), 48 h
PC-3 = tested on: PC-3
MCF7 = tested on: MCF7
SK-MEL-2 = tested on: SK-MEL-2
A549 = tested on: A549
RPMI-8226 = tested on: RPMI-8226
Hs-578T = tested on: Hs-578T
MDA-N = tested on: MDA-N
CCRF-CEM = tested on: CCRF-CEM
A498 = tested on: A498
NCI-H23 = tested on: NCI-H23
NCI-H522 = tested on: NCI-H522
ACHN = tested on: ACHN
SNB-19 = tested on: SNB-19
HL-60 = tested on: HL-60
M14 = tested on: M14
MDA-MB-231 = tested on: MDA-MB-231
NCI/ADR-RES = tested on: NCI/ADR-RES
UACC-257 = tested on: UACC-257
786-0 = tested on: 786-0
NCI-H460 = tested on: NCI-H460

SMILES | GI50 (PC-3) | GI50 (MCF7) | GI50 (SK-MEL-2) | GI50 (A549) | GI50 (RPMI-8226) | GI50 (Hs-578T) | GI50 (MDA-N) | GI50 (CCRF-CEM) | GI50 (A498) | GI50 (NCI-H23) | GI50 (NCI-H522) | GI50 (ACHN) | GI50 (SNB-19) | GI50 (HL-60) | GI50 (M14) | GI50 (MDA-MB-231) | GI50 (NCI/ADR-RES) | GI50 (UACC-257) | GI50 (786-0) | GI50 (NCI-H460)
CC(C)(C)C1CCC2c3c([nH]c4ccccc34)C3C(=O)N(c4ccc([N+](=O)[O-])cc4)C(=O)C3C2C1 (stereo not drawn) | 26.9 µM (inactive) | 2.79 µM (inactive) | 11.8 µM (inactive) | 10.8 µM (inactive) | 27 µM (inactive) | 11.4 µM (inactive) | 28.5 µM (inactive) | 8.51 µM (inactive) | 24.3 µM (inactive) | 10.3 µM (inactive) | 12.5 µM (inactive) | 36.6 µM (inactive) | 22 µM (inactive) | 6.11 µM (inactive) | 23.9 µM (inactive) | 17.8 µM (inactive) | 14.9 µM (inactive) | 29.1 µM (inactive) | 5.11 µM (inactive) | 13.6 µM (inactive)
COc1ccc2c(c1)CN([C@@H](C)[C@H]1CC[C@H]3[C@@H]4CC[C@H]5C[C@@H](O)CC[C@]5(C)[C@H]4CC[C@]13C)CO2 | 2.44 µM (inactive) | 3.7 µM (inactive) | 1.96 µM (inactive) | 1.76 µM (inactive) | 0.541 µM (active) | 1.61 µM (inactive) | 1.7 µM (inactive) | 1.85 µM (inactive) | 1.88 µM (inactive) | 1.89 µM (inactive) | 1.95 µM (inactive) | 3.21 µM (inactive) | 1.96 µM (inactive) | 2.47 µM (inactive) | 1.57 µM (inactive) | 2.42 µM (inactive) | 3.37 µM (inactive) | 2.2 µM (inactive) | 1.3 µM (inactive) | 1.23 µM (inactive)
O=C1C2=C(c3ccccc31)C(c1ccccc1)N1C(=O)CSC1=N2 (stereo not drawn) | 34.4 µM (inactive) | 33.8 µM (inactive) | 49 µM (inactive) | 67.1 µM (inactive) | 56.9 µM (inactive) | 35.6 µM (inactive) | 17 µM (inactive) | 48.4 µM (inactive) | > 100 µM (inactive) | 56.4 µM (inactive) | 29.4 µM (inactive) | > 79.4 µM (inactive) | 55.7 µM (inactive) | 40.1 µM (inactive) | 49.4 µM (inactive) | 44.8 µM (inactive) | 24 µM (inactive) | > 86.5 µM (inactive) | > 54.6 µM (inactive) | > 57.1 µM (inactive)
CCc1c(Cc2cccc3ccccc23)n2c(nc1=O)SCC2OCCO (stereo not drawn) | 52.6 µM (inactive) | 50.5 µM (inactive) | > 100 µM (inactive) | 77.3 µM (inactive) | 25.7 µM (inactive) | > 100 µM (inactive) | 40.8 µM (inactive) | 19.6 µM (inactive) | > 100 µM (inactive) | 42.8 µM (inactive) | 49 µM (inactive) | > 100 µM (inactive) | > 100 µM (inactive) | 36.9 µM (inactive) | > 100 µM (inactive) | > 100 µM (inactive) | 81.5 µM (inactive) | > 100 µM (inactive) | > 100 µM (inactive) | > 100 µM (inactive)
O=CNc1ccccc1OCCOc1ccccc1NC=O | > 100 µM (inactive) | > 100 µM (inactive) | > 100 µM (inactive) | > 100 µM (inactive) | > 100 µM (inactive) | > 100 µM (inactive) | > 100 µM (inactive) | > 100 µM (inactive) | > 100 µM (inactive) | > 100 µM (inactive) | > 100 µM (inactive) | > 100 µM (inactive) | > 100 µM (inactive) | > 100 µM (inactive) | > 100 µM (inactive) | > 100 µM (inactive) | > 100 µM (inactive) | > 100 µM (inactive) | > 100 µM (inactive) | > 100 µM (inactive)
C[C@@H]1C[C@@]2(O[C@@H]2C)C(=O)O[C@@H]2CCN3CC=C(COC(=O)[C@]1(C)O)[C@H]23 | > 100 µM (inactive) | > 100 µM (inactive) | > 100 µM (inactive) | > 100 µM (inactive) | > 100 µM (inactive) | > 100 µM (inactive) | > 100 µM (inactive) | > 100 µM (inactive) | > 100 µM (inactive) | > 100 µM (inactive) | > 100 µM (inactive) | > 100 µM (inactive) | > 100 µM (inactive) | > 100 µM (inactive) | > 100 µM (inactive) | > 100 µM (inactive) | > 100 µM (inactive) | > 100 µM (inactive) | > 100 µM (inactive) | > 100 µM (inactive)
CC(=O)Oc1c(C)cc2c(c1C)C(C)(C)CN2C(=O)C(C)(C)C | 35.1 µM (inactive) | > 100 µM (inactive) | > 100 µM (inactive) | 83.8 µM (inactive) | 53.8 µM (inactive) | > 100 µM (inactive) | > 100 µM (inactive) | 65.9 µM (inactive) | 55.6 µM (inactive) | 81.1 µM (inactive) | > 100 µM (inactive) | > 100 µM (inactive) | > 100 µM (inactive) | 63.8 µM (inactive) | 65.9 µM (inactive) | > 100 µM (inactive) | 45.3 µM (inactive) | > 100 µM (inactive) | > 100 µM (inactive) | > 100 µM (inactive)
Cc1ccc(S(=O)(=O)Oc2coc(CO)cc2=O)cc1 | 15.1 µM (inactive) | 4.7 µM (inactive) | 20.3 µM (inactive) | 14.8 µM (inactive) | 3.97 µM (inactive) | 19.5 µM (inactive) | 8.02 µM (inactive) | 3.08 µM (inactive) | 15.5 µM (inactive) | 16.8 µM (inactive) | 1.76 µM (inactive) | 18 µM (inactive) | 14.6 µM (inactive) | 3.14 µM (inactive) | 13.1 µM (inactive) | 18.6 µM (inactive) | 22.8 µM (inactive) | 15.3 µM (inactive) | 6.38 µM (inactive) | 14.4 µM (inactive)
O=C(C[C@@H]1NCCC[C@H]1O)Cn1cnc2cc(Br)c(Cl)cc2c1=O | 0.0351 µM (active) | < 0.01 µM (active) | 0.0148 µM (active) | 0.0128 µM (active) | 0.0243 µM (active) | 0.0274 µM (active) | 0.0138 µM (active) | 0.0192 µM (active) | 0.0327 µM (active) | 0.0195 µM (active) | < 0.0147 µM (active) | 0.0233 µM (active) | 0.0204 µM (active) | 0.033 µM (active) | 0.0178 µM (active) | 0.0284 µM (active) | 0.0416 µM (active) | 0.0336 µM (active) | 0.0182 µM (active) | 0.0127 µM (active)
O=C(O)CC1C(=O)OC2C3COC(=O)c4cc(O)c(O)c(O)c4-c4c(cc(O)c(O)c4O)C(=O)OC2C(OC(=O)c2cc(O)c(O)c4c2C1C(O)C(=O)O4)C(OC(=O)c1cc(O)c(O)c(O)c1)O3 (stereo not drawn) | 33.8 µM (inactive) | 16.9 µM (inactive) | > 100 µM (inactive) | 21.6 µM (inactive) | 36.9 µM (inactive) | 56.5 µM (inactive) | 24.1 µM (inactive) | 13.7 µM (inactive) | > 100 µM (inactive) | 49.3 µM (inactive) | 15.9 µM (inactive) | 30.4 µM (inactive) | > 100 µM (inactive) | 7.43 µM (inactive) | 27.7 µM (inactive) | 26.2 µM (inactive) | 16.7 µM (inactive) | 34.1 µM (inactive) | 18.5 µM (inactive) | 16 µM (inactive)
CCOc1cc(/C=C2\N=C(c3ccccc3)N(c3nc4ccccc4s3)C2=O)ccc1O | 27.9 µM (inactive) | 33.3 µM (inactive) | 23.8 µM (inactive) | – | 21.6 µM (inactive) | 29 µM (inactive) | 31.3 µM (inactive) | 34.3 µM (inactive) | 45.4 µM (inactive) | 21.7 µM (inactive) | 23.7 µM (inactive) | 37.3 µM (inactive) | – | 27.9 µM (inactive) | 44.9 µM (inactive) | > 100 µM (inactive) | 24.3 µM (inactive) | 48.8 µM (inactive) | 61.1 µM (inactive) | 29.2 µM (inactive)
Cc1ccc(NC(=S)N/N=C2\C(=O)Nc3ccccc32)cc1 | > 100 µM (inactive) | > 100 µM (inactive) | 97.7 µM (inactive) | > 100 µM (inactive) | > 100 µM (inactive) | > 100 µM (inactive) | > 100 µM (inactive) | 72.1 µM (inactive) | 51.6 µM (inactive) | > 100 µM (inactive) | > 100 µM (inactive) | 61.5 µM (inactive) | > 100 µM (inactive) | > 100 µM (inactive) | 94 µM (inactive) | > 100 µM (inactive) | 51.3 µM (inactive) | > 100 µM (inactive) | > 100 µM (inactive) | 83 µM (inactive)
N#Cc1nc(CCC(C(=O)O)N2C(=O)c3ccccc3C2=O)oc1N (stereo not drawn) | > 100 µM (inactive) | > 100 µM (inactive) | > 100 µM (inactive) | 41.7 µM (inactive) | > 100 µM (inactive) | > 100 µM (inactive) | > 100 µM (inactive) | > 100 µM (inactive) | > 100 µM (inactive) | > 100 µM (inactive) | > 100 µM (inactive) | > 100 µM (inactive) | > 100 µM (inactive) | > 100 µM (inactive) | > 100 µM (inactive) | > 100 µM (inactive) | > 100 µM (inactive) | > 100 µM (inactive) | > 100 µM (inactive) | > 100 µM (inactive)
COc1ccc(Cn2c3ccc([N+](=O)[O-])cc3c(=O)n2Cc2ccccn2)cc1 | 85.9 µM (inactive) | > 100 µM (inactive) | > 100 µM (inactive) | > 100 µM (inactive) | 34.5 µM (inactive) | > 100 µM (inactive) | 40.6 µM (inactive) | 62.5 µM (inactive) | > 100 µM (inactive) | 66.2 µM (inactive) | 66.4 µM (inactive) | 87.9 µM (inactive) | > 100 µM (inactive) | 28.9 µM (inactive) | 46 µM (inactive) | > 100 µM (inactive) | 39.7 µM (inactive) | 55.1 µM (inactive) | > 100 µM (inactive) | > 100 µM (inactive)
